Like-named read-outs stand apart in the source and are kept apart here.
Target: T1, Human FXR full length (Homo sapiens, UniProt Q96RI1)
T1 construct: Human FXR full length and RXR full length was obtained from Ronald Evans' laboratory; expressed in transfected cells; host or cells: CV-1 cells
T1 sequence (Q96RI1 1-476 isoform Q96RI1-1): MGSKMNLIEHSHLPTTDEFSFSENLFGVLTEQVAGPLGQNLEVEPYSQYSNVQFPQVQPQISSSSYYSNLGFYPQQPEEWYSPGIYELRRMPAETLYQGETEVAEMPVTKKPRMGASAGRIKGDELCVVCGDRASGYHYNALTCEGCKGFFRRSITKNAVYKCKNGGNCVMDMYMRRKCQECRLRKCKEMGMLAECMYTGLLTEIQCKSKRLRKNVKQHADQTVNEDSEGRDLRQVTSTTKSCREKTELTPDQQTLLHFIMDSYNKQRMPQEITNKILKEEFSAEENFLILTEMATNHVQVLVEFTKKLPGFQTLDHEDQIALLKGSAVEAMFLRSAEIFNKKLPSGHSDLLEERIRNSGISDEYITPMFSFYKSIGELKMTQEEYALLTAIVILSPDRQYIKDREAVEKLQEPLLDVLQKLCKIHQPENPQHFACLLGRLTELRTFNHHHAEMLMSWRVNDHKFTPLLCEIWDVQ
T1 sequence (P19793 1-462 partner): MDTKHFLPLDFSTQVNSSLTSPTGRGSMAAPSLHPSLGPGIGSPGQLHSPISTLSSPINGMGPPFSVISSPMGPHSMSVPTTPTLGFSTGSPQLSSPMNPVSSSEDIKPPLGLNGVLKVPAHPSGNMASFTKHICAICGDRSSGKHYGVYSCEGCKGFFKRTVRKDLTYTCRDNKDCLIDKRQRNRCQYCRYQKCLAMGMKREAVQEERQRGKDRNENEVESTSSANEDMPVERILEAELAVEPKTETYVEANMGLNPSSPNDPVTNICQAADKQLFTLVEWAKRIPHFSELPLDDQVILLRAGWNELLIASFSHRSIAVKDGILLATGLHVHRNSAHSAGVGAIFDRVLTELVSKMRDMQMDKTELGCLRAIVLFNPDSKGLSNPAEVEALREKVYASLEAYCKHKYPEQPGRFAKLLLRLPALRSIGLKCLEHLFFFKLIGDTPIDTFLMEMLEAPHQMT
Assay: FXR activity screen, luciferase reporter in transfected CV-1 cells
Type: cell-based
Description: CV-1 cells were grown in DMEM+10% charcoal stripped FCS. Cells were seeded into 384-well plates the day before transfection to give a confluency of 50-80% at transfection. A total of […] DNA containing 0.32 micrograms pCMX-hFXRfl, 0.32 micrograms pCMX-hRXRfl, 0.1 micrograms pCMXβGal, 0.08 micrograms pGLFXRE reporter and 0.02 micrograms pCMX empty vector was transfected per well using FuGene transfection reagent according to the manufacturer's instructions (Roche). Cells were allowed to express protein for 48 hours followed by addition of compound.
Human FXR full length and RXR full length was obtained from Ronald Evans' laboratory and PCR amplification of the hFXR cDNA and the hRXR cDNA was performed. The amplified cDNAs was cloned into the vector pCMX generating the plasmids pCMX-hFXRfl and pCMX-hRXRfl. Ensuing fusions were verified by sequencing. The pCMXMH2004 luciferase reporter contains multiple copies of the GAL4 DNA response element under a minimal eukaryotic promoter (Hollenberg and Evans, 1988). pCMXβGal was generated in the Evans laboratory, Salk Institute.
All compounds were dissolved in DMSO and diluted 1:1000 upon addition to the cells. Compounds were tested in quadruple in concentrations ranging from 0.001 to 100 μM. Cells were treated with compound for 24 hours followed by luciferase assay. Each compound was tested in at least two separate experiments.
Medium including test compound was aspirated and washed with PBS. 50 μL PBS including 1 mM Mg^2+ and Ca^2+ were then added to each well. The luciferase assay was performed using the LucLite kit according to the manufacturer's instructions (Packard Instruments). Light emission was quantified by counting on a Perkin Elmer Envision reader. To measure […] activity 25 μL supernatant from each transfection lysate was transferred to a new 384 microplate. Beta-galactosidase assays were performed in the microwell plates using a kit from Promega and read in a Perkin Elmer Envision reader. The beta-galactosidase data were used to normalize (transfection efficiency, cell growth etc.) the luciferase data.
The activity of a compound is calculated as fold induction compared to an untreated sample. For each compound the efficacy (maximal activity) is given as a relative activity compared to Fexaramine, a FXR agonist. The EC50 is the concentration giving 50% of maximal observed activity. EC50 values were calculated via non-linear regression using GraphPad PRISM (GraphPad Software, San Diego, Calif.).

[1] = first round, CV-1 cells, 24 hours, read-out: 1st RND EC50
[2] = second round, CV-1 cells, 24 hours, read-out: 2nd RND EC50

| EC50 [1] [µM] | EC50 [2] [µM] | EC50 (retest, read-out: EC50 (retested)) [µM] | SMILES |
| --- | --- | --- | --- |
| 1.1 | 2.2 |  | [2H]C(c1ccc(-c2ccc(N(C)C)cc2)cc1Cl)N(C(=O)C1CCCCC1)c1cc(F)cc(/C=C/C(=O)OC)c1 (centres unmarked) [NSSK00072] |
| 0.119 | 0.146 |  | [2H]C(c1ccc(-c2ccc3c(cnn3C)c2)cc1Cl)N(C(=O)[C@@H]1C[C@@H]2CC[C@H]1C2)c1cncc(/C=C/C(=O)OC)c1 (some centres unmarked) [NSSK00073] |
| 155 | 653 |  | COC(=O)/C=C/c1cccc(N(Cc2ccc(-c3ccc4c(cnn4C)c3)cc2Cl)C(=O)C2CCN(C)CC2)c1 [NSSK00075] |
| 0.698 | 0.673 |  | COC(=O)/C=C/c1cncc(N(Cc2ccc(-c3ccc(N(C)C)cc3)cc2F)C(=O)C2CCCCC2)c1 [NSSK00078] |
| 0.513 | 0.605 |  | [2H]C(c1ccc(-c2ccc(N(C)C)cc2)cc1F)N(C(=O)c1ccccc1)c1cccc(/C=C/C(=O)OC)c1 (centres unmarked) [NSSK00079] |
| 0.623 | 0.61 |  | COC(=O)/C=C/c1cccc(N(Cc2ccc(-c3ccc(N(C)C)cc3)cc2Cl)C(=O)C2CCCCC2)c1 [NSSK00080] |
| 22.8 | 71 |  | COC(=O)/C=C/c1cncc(N(Cc2ccc(-c3ccc(N(C)C)cc3)cc2Cl)C(=O)c2ccccc2)c1 [NSSK00081] |
| 5.1 | 6.1 |  | COC(=O)/C=C/c1cncc(N(Cc2ccc(-c3ccc(N(C)C)cc3)cc2Cl)C(=O)[C@@H]2C[C@@H]3CC[C@H]2C3)c1 [NSSK00082] |
| 3.6 | 4.7 |  | COC(=O)/C=C/c1cc(F)cc(N(Cc2ccc(-c3ccc4c(cnn4C)c3)cc2)C(=O)C2CCCCC2)c1 [NSSK00084] |
| 0.371 | 1.6 |  | [2H]C(c1ccc(-c2ccc3c(cnn3C)c2)cc1)N(C(=O)[C@@H]1C[C@@H]2CC[C@H]1C2)c1cccc(/C=C/C(=O)OC)c1 (some centres unmarked) [NSSK00086] |
| 0.383 | 0.406 | 0.366 | [2H]C(c1ccc(-c2ccc3c(cnn3C)c2)cc1F)N(C(=O)C1CCCCC1)c1cccc(/C=C/C(=O)OC)c1 (centres unmarked) [NSSK00089, methyl (E)-3-(3-(N-((2-fluoro-4-(1-methyl-1H-indazol-5-yl)phenyl)methyl-d)cyclohexanecarboxamido)phenyl)acrylate] |
| 0.801 | 0.628 |  | COC(=O)/C=C/c1cccc(N(Cc2ccc(-c3ccc4c(cnn4C)c3)cc2Cl)C(=O)C2CCCCC2)c1 [NSSK00091] |
| 3.4 | 5.5 |  | COC(=O)/C=C/c1cncc(N(Cc2ccc(-c3ccc4c(cnn4C)c3)cc2Cl)C(=O)c2ccccc2)c1 [NSSK00092] |
| 0.459 | 0.511 |  | [2H]C(c1ccc(-c2ccc3c(cnn3C)c2)cc1F)N(C(=O)c1ccccc1)c1cccc(/C=C/C(=O)OC)c1 (centres unmarked) [NSSK00093] |
| 0.786 | 0.865 |  | [2H]C(c1ccc(-c2ccc3c(cnn3C)c2)cc1Cl)N(C(=O)[C@@H]1C[C@@H]2CC[C@H]1C2)c1cc(F)cc(/C=C/C(=O)OC)c1 (some centres unmarked) [NSSK00094] |
| 1.4 | 1.5 |  | [2H]C(c1ccc(-c2ccc3c(cnn3C)c2)cc1Cl)N(C(=O)C1CCCCC1)c1cncc(/C=C/C(=O)OC)c1 (centres unmarked) [NSSK00095] |

Second part, the compound before the results:

| SMILES | EC50 [1] [µM] | EC50 [2] [µM] | EC50 (retest, read-out: EC50 (retested)) [µM] |
| --- | --- | --- | --- |
| [2H]C(c1ccc(-c2ccc(N(C)C)cc2)cc1)N(C(=O)c1ccccc1)c1cccc(/C=C/C(=O)OC)c1 (centres unmarked) [NSSK00048] | 0.382 | 0.357 |  |
| [2H]C(c1ccc(-c2ccc3c(cnn3C)c2)cc1)N(C(=O)c1ccccc1)c1cccc(/C=C/C(=O)OC)c1 (centres unmarked) [NSSK00049] | 2.8 | 3.5 |  |
| [2H]C(c1ccc(-c2ccc(N(C)C)cc2)cc1Cl)N(C(=O)c1ccccc1)c1cc(F)cc(/C=C/C(=O)OC)c1 (centres unmarked) [NSSK00050] | 1.7 | 2.1 |  |
| [2H]C(c1ccc(-c2ccc3c(cnn3C)c2)cc1)N(C(=O)c1ccccc1)c1cc(F)cc(/C=C/C(=O)OC)c1 (centres unmarked) [NSSK00051] | 1.1 | 5 |  |
| COC(=O)/C=C/c1cccc(N(Cc2ccc(-c3ccc(N(C)C)cc3)cc2Cl)C(=O)[C@@H]2C[C@@H]3CC[C@H]2C3)c1 [NSSK00052] | 0.697 | 0.697 |  |
| COC(=O)/C=C/c1cccc(N(Cc2ccc(-c3ccc(N(C)C)cc3)cc2)C(=O)c2ccccc2)c1 [NSSK00053] | 0.529 | 0.539 |  |
| COC(=O)/C=C/c1cccc(N(Cc2ccc(-c3ccc(N(C)C)cc3)cc2F)C(=O)c2ccccc2)c1 [NSSK00054] | 0.509 | 0.457 |  |
| COC(=O)/C=C/c1cccc(N(Cc2ccc(-c3ccc(N(C)C)cc3)cc2Cl)C(=O)c2ccccc2)c1 [NSSK00055] | 0.931 | 1.4 |  |
| COC(=O)/C=C/c1cccc(N(Cc2ccc(-c3ccc4c(cnn4C)c3)cc2)C(=O)c2ccccc2)c1 [NSSK00056] | 0.752 | 0.72 |  |
| COC(=O)/C=C/c1cccc(N(Cc2ccc(-c3ccc4c(cnn4C)c3)cc2F)C(=O)c2ccccc2)c1 [NSSK00057] | 0.606 | 0.795 |  |
| COC(=O)/C=C/c1cc(F)cc(N(Cc2ccc(-c3ccc4c(cnn4C)c3)cc2)C(=O)c2ccccc2)c1 [NSSK00058] | 1.2 | 1.5 |  |
| COC(=O)/C=C/c1cncc(N(Cc2ccc(-c3ccc(N(C)C)cc3)cc2)C(=O)[C@@H]2C[C@@H]3CC[C@H]2C3)c1 [NSSK00059] | 1.57 | 1.3 |  |
| COC(=O)/C=C/c1cncc(N(Cc2ccc(-c3ccc(N(C)C)cc3)cc2)C(=O)c2ccccc2)c1 [NSSK00060] | 8.5 | 11.2 |  |
| COC(=O)/C=C/c1cncc(N(Cc2ccc(-c3ccc4c(cnn4C)c3)cc2F)C(=O)c2ccccc2)c1 [NSSK00061] | 9.6 | 10.2 |  |
| [2H]C(c1ccc(-c2ccc(N(C)C)cc2)cc1)N(C(=O)C1CCCCC1)c1cncc(/C=C/C(=O)OC)c1 (centres unmarked) [NSSK00062] | 0.926 | 0.926 |  |
| [2H]C(c1ccc(-c2ccc(N(C)C)cc2)cc1)N(C(=O)c1ccccc1)c1cncc(/C=C/C(=O)OC)c1 (centres unmarked) [NSSK00063] | 3 | 1.9 |  |
| [2H]C(c1ccc(-c2ccc(N(C)C)cc2)cc1Cl)N(C(=O)[C@@H]1C[C@@H]2CC[C@H]1C2)c1cncc(/C=C/C(=O)OC)c1 (some centres unmarked) [NSSK00064] | 4.6 | 3.3 |  |
| [2H]C(c1ccc(-c2ccc(N(C)C)cc2)cc1Cl)N(C(=O)c1ccccc1)c1cncc(/C=C/C(=O)OC)c1 (centres unmarked) [NSSK00065] | 3.3 | 6 |  |
| [2H]C(c1ccc(-c2ccc3c(cnn3C)c2)cc1F)N(C(=O)[C@@H]1C[C@@H]2CC[C@H]1C2)c1cncc(/C=C/C(=O)OC)c1 (some centres unmarked) [NSSK00066] | 5.4 | 8.5 |  |
| [2H]C(c1ccc(-c2ccc3c(cnn3C)c2)cc1F)N(C(=O)c1ccccc1)c1cncc(/C=C/C(=O)OC)c1 (centres unmarked) [NSSK00067] | 0.0004 | 0.0002 |  |
| COC(=O)/C=C/c1cc(F)cc(N(Cc2ccc(-c3ccc(N(C)C)cc3)cc2)C(=O)c2ccccc2)c1 [NSSK00068] | 5.7 | 7.4 |  |
| [2H]C(c1ccc(-c2ccc3c(cnn3C)c2)cc1F)N(C(=O)[C@@H]1C[C@@H]2CC[C@H]1C2)c1cccc(/C=C/C(=O)OC)c1 (some centres unmarked) [NSSK00070] | 1.7 | 1.7 |  |
